Results as given in patent US20200095192A1, “BIODEGRADABLE DIETHANOLAMINE DERIVATIVE CHELATING AGENT AND PREPARATION PROCESS THEREOF” (PTT Global Chemical Public Company Limited, priority 2017, published 2020).
Like-named read-outs stand apart in the source and are kept apart here. Each block holds one molecule with its values, some of them ahead of it.

Legend:
[1] = tin (Pb^2+); previous disclosed chelating agent; cited from earlier work
[2] = calcium (Ca^2+); previous disclosed chelating agent; cited from earlier work
[3] = cadmium (Cd^2+); previous disclosed chelating agent; cited from earlier work
[4] = mercury (Hg^2+); previous disclosed chelating agent; cited from earlier work
[5] = iron (Fe^3+); previous disclosed chelating agent; cited from earlier work
[6] = strontium (Sr^2+); previous disclosed chelating agent; cited from earlier work
[7] = barium (Ba^2+); previous disclosed chelating agent; cited from earlier work
[8] = zinc (Zn^2+); previous disclosed chelating agent; cited from earlier work
[9] = nickel (Ni^2+); previous disclosed chelating agent; cited from earlier work
[10] = copper (Cu2+); previous disclosed chelating agent; cited from earlier work
[11] = cobolt (Co^2+); previous disclosed chelating agent; cited from earlier work
[12] = magnesium (Mg^2+); previous disclosed chelating agent; cited from earlier work
[13] = iron (Fe^2+); previous disclosed chelating agent; cited from earlier work
[14] = manganese (Mn^2+); previous disclosed chelating agent; cited from earlier work
[15] = aluminium (Al^3+); previous disclosed chelating agent; cited from earlier work
[16] = calcium chelation value of crude ligand; format: physicochemical; set-up: unit not given here
Experimental: (§1) The diethanolamine derivatives and maleic anhydride can be synthesized by the reaction according to equation (I). The diethanolamine precursor, maleic anhydride, and selected catalyst were added into about 15-20 mL of dichloromethane solvent, wherein the amounts of each compounds were shown in table 1. Then, the obtained mixture was refluxed at the temperature of 50° C. until the reaction was completed. The amount of precursors being used was monitored. The solvent was removed from the obtained product. The obtained product was dissolved in 50 mL of distilled water and washed with dichloromethane for at least 3 times (30 mL each). After being washed, the obtained product was dried under vacuum and analyzed for its property using ^1H NMR spectroscopy and liquid chromatography mass spectrometry (LC/MS) technique.
as §1, with “succinic” for “maleic”, “(II).” for “(I).”, “3.” for “1.”, “in” for “in 50 mL of”, “water (50 mL)” for “water”
as §1, with “and succinic” for “and maleic”, “equation (III).” for “equation (I).”, “precursor, phthalic” for “precursor, maleic”, “table 5.” for “table 1.”, “in” for “in 50 mL of”, “water (50 mL)” for “water”

[17] = crude of ligand 1-1 to ligand 1-11 without purification
[18] = crude of ligand 3-1 to ligand 3-7 without purification

Compound: O=C(O)CC[C@@H](C(=O)O)N(CC(=O)O)CC(=O)O [GLDA, glutamic acid N,N-diacetic acid]
stability constant [1]: 10.5 | stability constant [2]: 5.9 | stability constant [3]: 9.1 | stability constant [4]: 14.3 | stability constant [5]: 11.7 | stability constant [6]: 4.1 | stability constant [7]: 3.5 | stability constant [8]: 10.0 | stability constant [9]: 10.9 | stability constant [10]: 13.1 | stability constant [11]: 10.0 | stability constant [12]: 5.2 | stability constant [13]: 8.7 | stability constant [14]: 7.6 | stability constant [15]: 12.2

Compound: CC(C(=O)O)N(CC(=O)O)CC(=O)O (stereo not shown) [MGDA, methylglycinediacetic acid]
stability constant [2]: 7.0 | stability constant [5]: 16.5 | stability constant [7]: 4.9 | stability constant [8]: 10.9 | stability constant [9]: 12.0 | stability constant [10]: 13.9 | stability constant [12]: 5.8 | stability constant [13]: 8.1 | stability constant [14]: 8.4

Compound: O=C(O)CN(CCO)CC(=O)O [EDG, ethanol diglycine]
stability constant [1]: 13.6 | stability constant [2]: 4.7 | stability constant [3]: 7.4 | stability constant [4]: 19.8 | stability constant [5]: 21.6 | stability constant [6]: 5.2 | stability constant [7]: 3.4 | stability constant [8]: 15.2 | stability constant [9]: 18.2 | stability constant [10]: 11.8 | stability constant [11]: 8.0 | stability constant [12]: 6.2 | stability constant [13]: 13.4 | stability constant [14]: 10.0 | stability constant [15]: 7.7

Compound: O=C(O)CN(CCN(CC(=O)O)CC(=O)O)CC(=O)O [EDTA, ethylenediamineteraacetic acid]
stability constant [1]: 18.0 | stability constant [2]: 10.7 | stability constant [3]: 16.5 | stability constant [4]: 21.5 | stability constant [5]: 25.1 | stability constant [6]: 8.7 | stability constant [7]: 7.9 | stability constant [8]: 16.5 | stability constant [9]: 18.4 | stability constant [10]: 18.8 | stability constant [11]: 16.5 | stability constant [12]: 8.8 | stability constant [13]: 14.3 | stability constant [14]: 13.9 | stability constant [15]: 16.4

Compound: O=C(O)C[C@H](NCCN[C@@H](CC(=O)O)C(=O)O)C(=O)O [EDDS, ethylene diamine-N,N-disuccinic acid]
stability constant [1]: 12.7 | stability constant [2]: 4.6 | stability constant [3]: 16.4 | stability constant [5]: 22.0 | stability constant [7]: 3.0 | stability constant [8]: 13.4 | stability constant [9]: 16.7 | stability constant [10]: 18.4 | stability constant [11]: 13.6 | stability constant [12]: 6.0

Compound: O=C(O)CC(NC(CC(=O)O)C(=O)O)C(=O)O (stereo not shown) [IDS, iminodisuccinic acid]
stability constant [1]: 11.0 | stability constant [2]: 5.2 | stability constant [3]: 8.4 | stability constant [4]: 14.9 | stability constant [5]: 15.2 | stability constant [7]: 2.1 | stability constant [8]: 10.8 | stability constant [9]: 12.2 | stability constant [10]: 13.1 | stability constant [11]: 10.5 | stability constant [12]: 6.1 | stability constant [13]: 8.2 | stability constant [14]: 7.7 | stability constant [15]: 14.1

Compound: O=C(O)CC(OCCN(CCOC(CC(=O)O)C(=O)O)[C@@H](CC(=O)O)C(=O)O)C(=O)O (stereo partly shown) [BCA6]
stability constant [1]: 10.82 | stability constant [2]: 7.71 | stability constant [3]: 11.09 | stability constant [4]: 14.85 | stability constant [5]: 17.3 | stability constant [7]: 6.1 | stability constant [8]: 11.34 | stability constant [10]: 13.08 | stability constant [12]: 5.98 | stability constant [14]: 9.28 | stability constant [15]: 6.14

Compound: O=C(O)CN(CC(=O)O)CC(=O)O [NTA, nitrilotriacetic acid]
stability constant [1]: 11.5 | stability constant [2]: 6.4 | stability constant [3]: 9.8 | stability constant [4]: 14.3 | stability constant [5]: 15.9 | stability constant [6]: 5.0 | stability constant [7]: 4.8 | stability constant [8]: 10.7 | stability constant [9]: 11.5 | stability constant [10]: 13.0 | stability constant [11]: 10.4 | stability constant [12]: 5.5 | stability constant [13]: 8.9 | stability constant [14]: 7.5 | stability constant [15]: 11.4

Compound: O=C(O)/C=C/C(=O)OCCN(CCOC(=O)/C=C/C(=O)O)C(=O)/C=C/C(=O)O [ligand 1-9]
calcium chelation value [16, 17]: 83

calcium chelation value [16, 18]: 70
Compound: O=C(O)c1ccccc1C(=O)OCCN(CCOC(=O)c1ccccc1C(=O)O)C(=O)c1ccccc1C(=O)O [ligand 3-4]

Compound: O=C(O)/C=C/C(=O)OCCN(CCOC(=O)/C=C/C(=O)O)C(=O)/C=C/C(=O)O [ligand 1-3]
calcium chelation value [16, 17]: 13

calcium chelation value [16, 18]: 15
Compound: O=C(O)c1ccccc1C(=O)OCCN(CCOC(=O)c1ccccc1C(=O)O)C(=O)c1ccccc1C(=O)O [ligand 3-2]

Compound: O=C(O)CCC(=O)OCCN(CCOC(=O)CCC(=O)O)C(=O)CCC(=O)O [ligand 2-8]
calcium chelation value ([16]; crude of ligand 2-1 to ligand 2-9 without purification): 83
